According to ChEMBL document CHEMBL1127666, “Phosphonate analogs of carbocyclic nucleotides” (J Med Chem, 1994):

Test system: HEp-2
Assay: Cytotoxicity to human epidermoid carcinoma cells (HEP-2)
Assay type: functional, cell-based

Compound	IC50
Nc1nc(O)c2ncn([C@@H]3C[C@H](CO)[C@@H](O)C3)c2n1	95 µM
Nc1nc(O)c2ncn(C3CC(O)C(OCP(=O)(O)O)C3)c2n1 (configuration not stated)	2.4 µM
